Measured values from US20250073284A1, “WEISSELLA CONFUSA, CULTURE METHOD THEREFOR AND USE THEREOF” (SHANGHAI SINGEN PET NUTRITION CO., LTD., priority 2021, published 2025).
≈ marks a conversion by molar mass, not a printed value.

tested on: strain WSG1; assay: Susceptibility evaluation, K-B method (zones of inhibition of antibiotics); assay type: cell-based, Weissella confusa; conditions: antibiotic against strain WSG1, K-B method

Compound | Diameter of zone of inhibition
CC1(C)S[C@@H]2[C@H](NC(=O)[C@H](N)c3ccc(O)cc3)C(=O)N2[C@H]1C(=O)O [Amoxicillin, amoxicillin] | 15.0 mm
CC[C@H]1OC(=O)[C@H](C)[C@@H](O[C@H]2C[C@@](C)(OC)[C@@H](O)[C@H](C)O2)[C@H](C)[C@@H](O[C@@H]2O[C@H](C)C[C@H](N(C)C)[C@H]2O)[C@](C)(O)C[C@@H](C)CN(C)[C@H](C)[C@@H](O)[C@]1(C)O [Azithromycin, azithromycin] | 15.5 mm
CC1=C(C(=O)O)N2C(=O)[C@@H](NC(=O)[C@H](N)c3ccccc3)[C@H]2SC1 [Cefalexin, cefalexin] | 15.5 mm
Cc1nnc(SCC2=C(C(=O)O)N3C(=O)[C@@H](NC(=O)Cn4cnnn4)[C@H]3SC2)s1 [Cefazolin, cefazolin] | 19.5 mm
CC1=C(C(=O)O)N2C(=O)[C@@H](NC(=O)[C@H](N)C3=CCC=CC3)[C@H]2SC1 [Cefradine, cefradine] | 17.5 mm
CC(=O)OCC1=C(C(=O)O)N2C(=O)[C@@H](NC(=O)Cc3cccs3)[C@H]2SC1 [Cephalothin, cephalothin] | 23.5 mm
O=C(N[C@H](CO)[C@H](O)c1ccc([N+](=O)[O-])cc1)C(Cl)Cl [Chloramphenicol, chloramphenicol] | 23.5 mm
CCC[C@@H]1C[C@@H](C(=O)N[C@@H]([C@H]2O[C@H](SC)[C@H](O)[C@@H](O)[C@H]2O)[C@H](C)Cl)N(C)C1 [Clindamycin, clindamycin] | 23.0 mm
CCN1CCN(c2cc3c(cc2F)c(=O)c(C(=O)O)cn3C2CC2)CC1 [Enrofloxacin, enrofloxacin] | 13.5 mm
Cc1onc(-c2ccccc2)c1C(=O)N[C@@H]1C(=O)N2[C@@H]1SC(C)(C)[C@@H]2C(=O)O [Oxacillin, oxacillin] | 7.5 mm
CN(C)[C@@H]1C(O)=C(C(N)=O)C(=O)[C@@]2(O)C(O)=C3C(=O)c4c(O)cccc4[C@@](C)(O)[C@H]3C[C@@H]12 [Tetracycline, tetracycline] | 19.5 mm
CN[C@H](CC(C)C)C(=O)N[C@H]1C(=O)N[C@@H](CC(N)=O)C(=O)N[C@H]2C(=O)N[C@H]3C(=O)N[C@H](C(=O)N[C@H](C(=O)O)c4cc(O)cc(O)c4-c4cc3ccc4O)[C@H](O)c3ccc(c(Cl)c3)Oc3cc2cc(c3O[C@@H]2O[C@H](CO)[C@@H](O)[C@H](O)[C@H]2O[C@H]2C[C@](C)(N)[C@H](O)[C@H](C)O2)Oc2ccc(cc2Cl)[C@H]1O [Vancomycin, vancomycin] | 0.0 mm
penicillin | 23.5 mm

tested on: strain WSG1; assay: Susceptibility evaluation, MIC method; assay type: cell-based; conditions: Weissella confusa; marbofloxacin against strain WSG1

Compound | MIC
CN1CCN(c2c(F)cc3c(=O)c(C(=O)O)cn4c3c2OCN4C)CC1 [marbofloxacin] | 1020 µg/mL (≈ 2830 µM)
